Measurements published in US4396543A.
≈ marks a conversion by molar mass, not a printed value. Where “and” joins values, the source holds several entries; their conditions need not be identical. Identical values can stand only once.

Experiments:
[1] = system: Staphylococcus aureus X1.1; assay: agar-dilution MIC; format: cell-based; details: two values = two experiments, 2 median of five, 19 median of three experiments
Method: (§1) In Table VII activity is measured by the minimal inhibitory concentration (MIC), i.e. the lowest concentration of compound at which growth of the microorganism is inhibited by the test compound.

[2] = system: Staphylococcus aureus V41; assay: agar-dilution MIC; format: cell-based; details: Staphylococcus aureus V41, penicillin-resistant strain; two values = two experiments; 2 median of five, 19 median of three
Method: as §1

[3] = system: Staphylococcus aureus X400; assay: agar-dilution MIC; format: cell-based; details: Staphylococcus aureus X400, methicillin-resistant strain; two values = two experiments; 2 median of five, 19 median of three
Method: as §1

[4] = system: Staphylococcus epidermidis EPI1; format: cell-based; details: two values = two experiments, 2 median of five, 19 median of three
[5] = system: Staphylococcus epidermidis EPI2; assay: agar-dilution MIC; format: cell-based; details: two values = two experiments, 2 median of five, 19 median of three
[6] = system: Streptococcus pyogenes C203; assay: agar-dilution MIC; format: cell-based; details: two values = two experiments, 2 median of five, 19 median of three
[7] = system: Streptococcus Group D X66; assay: agar-dilution MIC; format: cell-based; details: two values = two experiments, 2 median of five, 19 median of three
Method: as §1

[8] = system: Streptococcus Group D 9960; assay: agar-dilution MIC; format: cell-based; details: two values = two experiments, 2 median of five, 19 median of three
Method: as §1

Staphylococcus aureus = assay: in vivo experimental bacterial infection, ED50; details: mice, two doses subcutaneously; two values = two experiments
Streptococcus pyogenes = assay: in vivo experimental bacterial infection, ED50; details: mice; for ED50 Values Streptococcus pyogenes Oral: two doses orally; for ED50 Values Streptococcus pyogenes Subcutaneous: two doses subcutaneously, two values = two experiments
toxicity test, LD50 = details: mouse, in vivo, iv; administered intravenously; read-out: LD50 (mg/kg) in Mice
[9] = system: Streptococcus pneumoniae Park I; format: cell-based; details: two values = two experiments, 2 median of five, 19 median of three
Method: as §1

SMILES | MIC [1] [µg/mL] | MIC [2] [µg/mL] | MIC [3] [µg/mL] | MIC [4] [µg/mL] | MIC [5] [µg/mL] | MIC [6] [µg/mL] | MIC [7] [µg/mL] | MIC [8] [µg/mL] | ED50 Values Staphylococcus aureus Subcutaneous (Staphylococcus aureus) [mg/kg × 2] | ED50 Values Streptococcus pyogenes Oral (Streptococcus pyogenes) [mg/kg × 2] | ED50 Values Streptococcus pyogenes Subcutaneous (Streptococcus pyogenes) | LD50 (toxicity test, LD50) [mg/kg] | MIC [9] [µg/mL]
CCCCCCCCCCC(=O)N[C@@H](Cc1ccccc1)C(=O)NCCC[C@@H]1NC(=O)CNC(=O)[C@@H](NC(=O)[C@H](CC(=O)O)NC(=O)[C@@H](CC(N)=O)NC(=O)[C@@H](N)Cc2c[nH]c3ccccc23)[C@@H](C)OC(=O)[C@H](CC(=O)c2ccccc2N)NC(=O)[C@H]([C@H](C)CC(=O)O)NC(=O)[C@@H](CO)NC(=O)CNC(=O)[C@H](CC(=O)O)NC(=O)[C@@H](C)NC(=O)[C@H](CC(=O)O)NC1=O [Compound 26] | 8 (≈ 4.49 µM) | > 128 | > 128 | > 128 | > 128 | 1 (≈ 0.561 µM) | > 128 | 32 (≈ 18 µM) | 9.2 | > 200 | > 18 mg/kg × 2 |  | 
CCCCCCCCCCCC(=O)Nc1ccc(C(=O)N[C@@H](Cc2c[nH]c3ccccc23)C(=O)N[C@H](CC(N)=O)C(=O)N[C@@H](CC(=O)O)C(=O)N[C@@H]2C(=O)NCC(=O)N[C@@H](CCCN)C(=O)N[C@@H](CC(=O)O)C(=O)N[C@H](C)C(=O)N[C@@H](CC(=O)O)C(=O)NCC(=O)N[C@H](CO)C(=O)N[C@@H]([C@H](C)CC(=O)O)C(=O)N[C@@H](CC(=O)c3ccccc3N)C(=O)O[C@@H]2C)cc1 [Compound 4] | 4 (≈ 2.26 µM) |  | 8 (≈ 4.53 µM) |  |  |  |  |  | < 5 | > 200 | 18.8 mg/kg × 2 | > 300 | 
CCCCCCCCCCC(=O)N[C@@H](Cc1ccccc1)C(=O)N[C@@H](Cc1c[nH]c2ccccc12)C(=O)N[C@H](CC(N)=O)C(=O)N[C@@H](CC(=O)O)C(=O)N[C@@H]1C(=O)NCC(=O)N[C@@H](CCCN)C(=O)N[C@@H](CC(=O)O)C(=O)N[C@H](C)C(=O)N[C@@H](CC(=O)O)C(=O)NCC(=O)N[C@H](CO)C(=O)N[C@@H]([C@H](C)CC(=O)O)C(=O)N[C@@H](CC(=O)c2ccccc2N)C(=O)O[C@@H]1C [Compound 20] | 0.5 (≈ 0.281 µM) | 0.5 (≈ 0.281 µM) | 2 (≈ 1.12 µM) | 2 (≈ 1.12 µM) | 2 (≈ 1.12 µM) | 0.125 (≈ 0.0701 µM) | 4 (≈ 2.24 µM) | 2 (≈ 1.12 µM) | 1.25 | > 200 | 0.35 mg/kg × 2 | 400 | 
CCCCCCCCCCCCCC(=O)N[C@@H](Cc1ccccc1)C(=O)N[C@@H](Cc1c[nH]c2ccccc12)C(=O)N[C@H](CC(N)=O)C(=O)N[C@@H](CC(=O)O)C(=O)N[C@@H]1C(=O)NCC(=O)N[C@@H](CCCN)C(=O)N[C@@H](CC(=O)O)C(=O)N[C@H](C)C(=O)N[C@@H](CC(=O)O)C(=O)NCC(=O)N[C@H](CO)C(=O)N[C@@H]([C@H](C)CC(=O)O)C(=O)N[C@@H](CC(=O)c2ccccc2N)C(=O)O[C@@H]1C [Compound 22] | 0.5 (≈ 0.274 µM) | 1 (≈ 0.548 µM) | 2 (≈ 1.1 µM) | 4 (≈ 2.19 µM) | 4 (≈ 2.19 µM) | 0.25 (≈ 0.137 µM) | 1 (≈ 0.548 µM) | 0.5 (≈ 0.274 µM) | 4.8 | > 200 | < 0.27 mg/kg × 2 and 0.36 mg/kg × 2 |  | 
CCCCCCCCCCCC(=O)NCCCCCCCCCCC(=O)N[C@@H](Cc1c[nH]c2ccccc12)C(=O)N[C@H](CC(N)=O)C(=O)N[C@@H](CC(=O)O)C(=O)N[C@@H]1C(=O)NCC(=O)N[C@@H](CCCN)C(=O)N[C@@H](CC(=O)O)C(=O)N[C@H](C)C(=O)N[C@@H](CC(=O)O)C(=O)NCC(=O)N[C@H](CO)C(=O)N[C@@H]([C@H](C)CC(=O)O)C(=O)N[C@@H](CC(=O)c2ccccc2N)C(=O)O[C@@H]1C [Compound 3] | 2 (≈ 1.09 µM) | 2 (≈ 1.09 µM) | 8 (≈ 4.37 µM) | 8 (≈ 4.37 µM) | 8 (≈ 4.37 µM) | 2 (≈ 1.09 µM) | 8 (≈ 4.37 µM) | 8 (≈ 4.37 µM) | > 18 | > 200 | 6.2 mg/kg × 2 | 600 | 0.5 (≈ 0.273 µM)
